One assay has as its system hemolysin antibody. Kind of assay: Hemolysin antibody caused by chick RBC, NIH mouse. The settings on record: 0.02 g/kg, 0˜7. It counts as in vivo. The method, then:
190 mice, 18-22 g weight, half male and half female, were divided into 19 groups. Each mouse was immunized with 5% CRBC solution 0.2 ml. The Fengshiping solutions were drenched at the different times. 7 days after the immunization, all the mice were sampled the blood from the eyes. Then the blood samples were diluted and measured the level of the hemolysin antibody.

The subject of another assay is TNF α. Nature of the assay: TNF α level of cultured cells from dosed mice. It counts as in vivo, ICR mice. As to conditions: 0.02 g/kg, 10 days. How it is done:
(§1) 60 ICR mice, 1822 g, half male and half female, were divided into 6 groups at random. Each group was drenched of the correspondent medicines including the different dosages of Fengshiping and the other medicines. The medicines were administrated once a day for 10 days. 24 hours after the last administration, the mice were sampled the macrophage and spleen cells from the abdominal cavity in the aseptic condition. The samples were washed with Hank's liquor for 2 times and non-serum RPIM 1640 liquor for 1 time. Then the washed samples were diluted to the suspension with the 5% FCS-RPMI 1640 at the concentration of 2×10^8/ml. Then the suspensions were added with 10 ng/ml LPS or the 10 ng/ml ConA and cultured in the 5% CO2 condition for 48 hours at 37° C. Then the cultured suspension were measured the TNF α and IL-2 levels on the usual methods.
The batten was coated by mouse TNF-α monoclonal antibody. The batten was added with the cultured supernate on the dose of 50 μl/hole. Then the batten was put still for 60 minutes at the room temperature. Then the batten was added with biotin antibody mark at 25° C. for 2 hours. Then the enzyme labeled avidin was added into the batten for 30 minutes. […] The mixed liquor was measured the OD value at the wavelength of the 450 nm. The content of the TNF-α (ng/ml) was calculated on the data of OD value by the method of standard curve.

For a further assay, the system named is IL-2. Kind of assay: IL-2 level of cultured cells from dosed mice (CTLL cells). As to conditions: 0.02 g/kg, 10 days. It counts as in vivo, ICR mice. How it is done: as §1
The CTLL cells which was on the logarithmic growth phase and whose growth depends on the IL-2, were adjusted to the suspension at the concentration of 1×10^5/ml with the 5% FCS-RPMI 1640. Then the 96 hole cell culturing batten were added with the CTLL cell suspension on the quantity of 100 μl/hole. The supernates were added on the quantity of 100 μl/hole and each sample was added to 3 holes. […] The samples were cultured for 3 hours at 37° C., and then measured the OD at the wavelength 570 nm and 630 nm. […]

The subject of another assay is spleen cells. Nature of the assay: Lymphocyte transformation induced by ConA. It counts as in vivo, NIH mice. As to conditions: 0.02 g/kg. How it is done:
80 NIH mice, half male and half female, were divided into 8 groups randomly and drenched with the correspondent medicines once a day for 10 days. 24 hours after the last administration, all the mice were killed to sample the spleen cells aseptically. Then the samples were washed by the Hank's liquor for 2 times and nonserum RPMI1640 liquor for 1 time. Then the clear samples were adjusted to the 2×10^6/ml cell suspension with 5% FCS-RPMI liquor. The 96-hole flat bottom cell culturing batten was added with the cell suspension on the quantity of 100 μl/hole. Each sample was cultured with 3 copies. 2 holes were added in 2 ng ConA each as the stimulating reagent. The other hole was not added in the ConA and kept as the control hole. The batten was cultured in 5% CO2 at 37° C. for 72 hours. 14 hours before the end of the culture, each hole was added in 3H-TdR 0.1μ Ci. The cells were harvested by the multihead cell harvesting instrument and measured the cpm value. The average value was adopted as the sample's cpm value. The average value and the stimulating index of the different groups were compared directly. The stimulating index was calculated as following: […]

In the next assay the test system is NK cell. Nature of the assay: NK cell activity (Yack-1 target cells). As to conditions: 0.02 g/kg. It counts as in vivo, ICR mice. The method, then:
The experiment was same to 5.1. 24 hours after the last administration, the spleen cell samples were made into the 2×10^8/ml cell suspension with 5% FCS-RPIM1640. The quantity of CD4, CD8, NK cells and the rate CD4/CD8 were measured on the usural method.
The preparation of the EC cell: The spleen cells were sampled in the asepsis condition. Then the samples were washed by the Hank's liquor for 2 times and nonserum RPMI1640 liquor for 1 time. Then the clear samples were adjusted to the 2×10^8/ml cell suspension with 5% FCS-RPMI liquor. This cell suspension was used as the EC.
The preparation of the TC cell: The Yack-1 cells, which were sensitive to the mouse NK cell and on the logarithmic growth phase, were adjusted to the 4×10^4/ml cell suspension. It was the TC.
Measurement: EC and TC, 100 μl each were added in the 96-hole flat bottom cell culturing batten. Each sample was cultured with 3 copies and set 2 control samples: EC and TC. […] The samples were cultured in 5% CO2 at 37° C. for 24 hours. 6 hours before the end of the culturing, the samples were centrifuged and sucked out 110 μl supernate each hole. And then the holes were added in the MTT 10 μl. After put at 37° C. for 3 hours, the mixed samples were measured the OD value at the wavelength of 570 nm and 630 nm. The OD of each hole=OD570 nm-OD630 nm.

With `O=P1(N(CCCl)CCCl)NCCCO1` (stereo not shown) [cyclophosphane], in the assay on hemolysin antibody, the Hemolysin value was 35.0 ± 12.0 and the Inhibiting percent is on record as 79.3%. In addition, in the assay on TNF α, the TNF was found to be 42.20 ± 9.57 pg/mL. The IL-2 in the assay on IL-2 was 10.10 ± 3.00 IU/ml. In the assay on spleen cells, the Stimulating index amounted to 13.66 ± 2.28 and the cpm is 9922 ± 1145 cpm. The NK in the assay on NK cell is given as 23.10 ± 3.66 ^.
